Assay results: US20220030868A1, “FUNGICIDAL HALOMETHYL KETONES AND HYDRATES” (FMC CORPORATION, priority 2018, published 2022)

How the values were obtained:
Phakopsora pachyrhizi = test: Test A: test suspension sprayed on soybean seedlings one day before inoculation with Phakopsora pachyrhizi spores (Asian soybean rust), visual disease rating; format: in vivo; conditions: 100 = 100% disease control, 0 = no control
Summary of the method: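 Soybean seedlings were sprayed to run-off with test suspension (acetone 3% of volume, acetone/water 50/50, 250 ppm PEG400) and inoculated with rust spores one day later. Incubation: 24 h saturated atmosphere at 22° C, then 8 days growth chamber at 22° C; scores 0–100 relative to untreated controls.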

[1] = tested on: Puccinia recondita f. sp. tritici; test: Test B: test suspension sprayed on wheat seedlings one day before inoculation with Puccinia recondita f. sp. tritici spores (wheat leaf rust), disease rating; format: in vivo; conditions: 100 = 100% disease control, 0 = no control
Summary of the method: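 Wheat seedlings were sprayed to run-off with compound suspended in 50/50 acetone/water containing 250 ppm PEG400, then inoculated with P. recondita f. sp. tritici spores the next day. Plants were held 24 h in saturated air at 20 °C, then 6 days in a growth chamber at 20 °C. Disease control was rated 0–100% relative to controls, with some entries run at 50 or 10 ppm.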

| Structure (SMILES) | Test A rating (disease control) (Phakopsora pachyrhizi; 10 ppm test suspension) | Test B rating (disease control) ([1]; 10 ppm test suspension) | also measured |
| --- | --- | --- | --- |
| O=[N+]([O-])c1ccc(OCC2(C(F)(F)F)OCCO2)cc1 [compound 166] | 100% | 95% | – |
| O=C(OCc1ccc(Cl)c(Cl)c1)c1cnn(Cc2ccc(OCC(O)(O)C(F)(F)F)cc2)c1 [Compound 49] | 0% | 86% | – |
| O=S(=O)(NCc1ccc(OCC2(C(F)(F)F)OCCO2)cc1)C(F)(F)F [compound 207] | 0% | 0% | – |
| CCOC(=O)C1CCCN(Cc2ccc(O/C=C(\OCC)C(F)(F)F)cc2)C1 (stereo not shown) [compound 269] | 100% | 0% | – |
| CCOC(=O)c1ccc(O/C=C(\OCC)C(F)(F)F)cc1 [compound 95] | 0% | 0% | – |
| CCO/C(=C\Oc1ccc(Cn2ccc(C(=O)OCCCCl)n2)cc1)C(F)(F)F [compound 362] | 100% | 0% | – |
| O=[N+]([O-])c1cccc(OCC2(C(F)(F)F)OCCO2)c1 [compound 165] | – | – | pest or weed control at 10 ppm (Phakopsora pachyrhizi; Phakopsora pachyrhizi, 10 ppm test suspension): 0%; pest or weed control at 10 ppm ([1]; 10 ppm test suspension): 0% |
| CCOC(=O)c1cnn(Cc2ccc(OC(C)C(O)(O)C(F)(F)F)cc2)c1 (stereo not shown) [Compound 5] | 0% | 0% | – |
| CCO/C(=C\Oc1ccc(Cn2cc(C(=O)OC)c3ccccc32)cc1)C(F)(F)F [compound 91] | 0% | 0% | – |
| COC(=O)NN=Cc1ccc(OCC(O)(O)C(F)(F)F)cc1 [Compound 33] | 96% | 86% | – |
| CCOC(=O)c1cnn(Cc2cc(O/C=C(\OCC)C(F)(F)F)ccc2F)c1 [compound 302] | – | – | pest or weed control at 50 ppm (Phakopsora pachyrhizi; Phakopsora pachyrhizi, 50 ppm test suspension): 99%; pest or weed control at 50 ppm ([1]; 50 ppm test suspension): 0% |
| O=C(OCC1OCCO1)c1cnn(Cc2ccc(OCC3(C(F)(F)F)OCCO3)cc2)c1 [compound 204] | 100% | 0% | – |
| CN(C)C(=O)c1cnn(Cc2ccc(OCC3(C(F)(F)F)OCCO3)cc2)c1 [compound 198] | 0% | 0% | – |
| CCO/C(=C\Oc1ccc(Cn2ccnc2)cc1)C(F)(F)F [compound 156] | 0% | 0% | – |
| CCO/C(=C\Oc1ccc(Cn2cc(C(=O)OCCOC)cn2)cc1)C(F)(F)F [compound 222] | 100% | 0% | – |
| CS(=O)(=O)c1nccc(Cc2ccc(OCC3(C(F)(F)F)OCCO3)cc2)n1 [compound 282] | – | – | Test A rating (disease control) (Phakopsora pachyrhizi; 50 ppm test suspension): 0%; Test B rating (disease control) ([1]; 50 ppm test suspension): 0% |
| CON(Cc1ccc(OCC2(C(F)(F)F)OCCO2)cc1)C(=O)OC(C)(C)C [compound 238] | 73% | 0% | – |
| CCCCOC(=O)c1ccn(Cc2ccc(O/C=C(\OCC)C(F)(F)F)cc2)n1 [compound 356] | 100% | 0% | – |
| COCCNC(=O)c1csc(Cc2ccc(OCC(O)(O)C(F)(F)F)cc2)n1 [Compound 223] | 75% | 0% | – |
| CCO/C(=C\Oc1ccc(C#N)cc1)C(F)(F)F [compound 144] | 78% | 0% | – |
| O=C(NCC(F)(F)F)c1cnc(Cc2ccc(OCC3(C(F)(F)F)OCCO3)cc2)s1 [Compound 275] | 0% | 0% | – |
| CCO/C(=C\Oc1ccc(CN2CCCC2=O)cc1)C(F)(F)F [compound 224] | 0% | 0% | – |
| O=C(NCC1CC1)c1cnc(Cc2ccc(OCC3(C(F)(F)F)OCCO3)cc2)o1 [Compound 248] | 71% | 0% | – |
